# Entries after “also recorded” stand apart in the source; their conditions may differ. Read-outs that look alike come from different tables or passages of the source.
# Assays:
# [1] = tested on: Sarcoma 180
# Protocol: The control lane (Table A) indicates separate inoculation of nine mice with B-16 melanoma and sarcoma 180.
# Anti-tumor activity of the newly synthesized compounds and the established drugs (as positive controls) against solid tumors (B-16 melanoma and sarcoma 180) was tested in BD2 F1 mice. Tumor (about 2.5×10^6 cells) was inoculated subcutaneously (s.c.). Treatment with the drug started on day 4 after inoculation. The drug was injected intraperitoneously (i.p) daily (QD) for five days. Control mice received the same volume (50 μl) of the solvent vehicle (Dinso) as the drug-treated animals. Tumor size was evaluated every few days using a caliper for both the control and the treated group. Average body weight changes were recorded daily. Any lethality due to high dose drug toxicity or due to tumor progression was also recorded.
# (§1) Schedule: QD × 5. I.P. started day 4
# [2] = tested on: topoisomerase I; settings: camptothecin, literature; cited from earlier work
# [3] = tested on: 833K cells; experiment: Cytotoxicity, XTT assay, 833K cell growth, 72 hr exposure; format: cell-based; settings: Homo sapiens, 72 h
# Protocol: (§2) The synthesized compounds were evaluated for their cytotoxic effects on HL-60 (human promyelocytic leukemia) and 833K cells. The assay was conducted in 96-well microplates. The compounds were serially diluted in 4 to 6 steps with dimethylsulfoxide and added to cell incubation medium (RPMI 1640 containing 10% fetal. […]) at the final concentration of 1.0% dimethylsulfoxide in the medium. The cytotoxicity of the compounds were determined by the XTT-microculture tetrazolium assay: 2',3'-bis(2-methoxy-4-nitro-5-sulfophenyl)-3-[(phenylamino)carbonyl]-2H-tetrazolium hydroxide (XTT) was prepared at 1 mg/mL in prewarmed (37° C.) medium without serum. Phenazine methosulfate (PMS) and fresh XTT were mixed together to obtain 0.075 mM PMS-XTT solution (25 mL of the stock with 5 mg PMS added per 5 mL of 1 mg/mL XTT). Fifty microliters of this mixture were added to each well of the cell culture after 72 hours exposure to the testing compound. After incubation at 37° C. for 6 hours, the absorbance was determined at 450 nm and 630 nm with a microplate reader (EL 340, Bio-Tek Instruments, Inc., Winooski, Vt.). THe median-effect inhibitory concentration (IC50) was determined from a medium-effect plot using computer software for the purpose.
# (§3) The results of the assay of cytotoxicity towards HL-60 and 833K cells of several analogues of camptothecin prepared in accord with the invention are illustrated in the accompanying Tables I and II, along with comparison data for native camptothecin. The data shown indicate that the camptothecin analogues prepared by the new methods provided by the invention have significant cytotoxic activity against cancer cells. […]
# [4] = camptothecin, background; cited from earlier work
# [5] = tested on: topoisomerase I and DNA; settings: camptothecin, literature; cited from earlier work
# [6] = tested on: HL-60 cells (human promyelocytic leukemia); experiment: Cytotoxicity, XTT assay, HL-60 cell growth, 72 hr exposure; format: cell-based; settings: for IC50: read-out: Inhibitory Concentrations IC50
# Protocol: as §2, §3
# [7] = tested on: B-16 melanoma; format: in vivo, BD2 F1 mice
# Protocol: Average body weight changes were recorded daily.
# Tumor: B16 Melanoma Drug A = Camptothecin
# Inoculation: 2 × 10^6 cells. S.C.
# as §1
# [8] = Sarcoma 180, 4 mg/kg i.p. QD × 5, day 7
# [9] = Table I, HL-60 (head HL-6), 72 hr, XTT
# [10] = B-16 melanoma, 4 mg/kg i.p. QD × 5, day 7
smiles,measurement,setting,value
CC[C@@]1(O)C(=O)OCc2c1cc1n(c2=O)Cc2cc3ccccc3nc2-1 [Camptothecin],AWC (average weight change),[1]; [8],-0.9 gm
same,Ave Tumor Volume (T/C),[1]; [8],0.634
same,AVERAGE TUMOR VOLUME,"[1]; Sarcoma 180, 4 mg/kg, day 7",0.104 CM^3
same,DEATHS (D/L),"[1]; Sarcoma 180, 4 mg/kg, day 7",0/2
same,PERCENT OF CONTROL (tumor volume),"[1]; Sarcoma 180, 4 mg/kg, day 7",63.4%
same,AVERAGE TUMOR VOLUME,"[1]; Sarcoma 180, 4 mg/kg, day 14",0.080 CM^3
same,AWC (average weight change),"[1]; Sarcoma 180, 4 mg/kg, day 14",+0.8 GM
same,DEATHS (D/L),"[1]; Sarcoma 180, 4 mg/kg, day 14",0/2
same,PERCENT OF CONTROL (tumor volume),"[1]; Sarcoma 180, 4 mg/kg, day 14",39.4%
same,average weight loss,"[1]; sarcoma 180, 4 mg/kg",0.9 gm
same,tumor volume decrease,"[1]; sarcoma 180, 4 mg/kg",36%
same,inhibition of topoisomerase I on DNA unwinding,[2],"inhibits the action of topoisomerase I on DNA unwinding; also recorded: reversible with heat, high salt concentrations and high dilution"
same,IC50,[3]; read-out: Inhibitory Concentrations IC50,15.3 nM
same,IC70,[3]; read-out: Inhibitory Concentrations IC70,43 nM
same,IC95,[3]; read-out: Inhibitory Concentrations IC95,649 nM
same,toxicity,[4],High toxicity
same,binding to the enzyme or DNA target in isolation,[5],binds neither to the enzyme nor to its DNA target in isolation
same,IC70,"[6]; Homo sapiens, HL-60, 72 h, read-out: Inhibitory Concentrations IC70, Table I, HL-60 (head HL-6), 72 hr, XTT",12 nM
same,IC70,"[6]; Homo sapiens, HL-60, 72 h, read-out: Inhibitory Concentrations IC70, Table II, HL-60, 72 hr, XTT",12 nM
same,IC95,"[6]; Homo sapiens, HL-60, 72 h, read-out: Inhibitory Concentrations IC95, Table I, HL-60 (head HL-6), 72 hr, XTT",25 nM
same,IC95,"[6]; Homo sapiens, HL-60, 72 h, read-out: Inhibitory Concentrations IC95, Table II, HL-60, 72 hr, XTT",25 nM
same,Inhibitory Concentrations IC70,[6]; [9],0.006
same,Inhibitory Concentrations IC95,[6]; [9],0.022
same,IC70,"[6]; Table II, HL-60, 72 hr, XTT, read-out: Inhibitory Concentrations IC70",6 nM
same,IC95,"[6]; Table II, HL-60, 72 hr, XTT, read-out: Inhibitory Concentrations IC95",22 nM
same,IC50,[6]; [9],3.5 nM
same,IC50,"[6]; Table I, HL-60 (head HL-6), 72 hr, XTT, listed as WS-1",9.4 nM
same,IC50,"[6]; Table II, HL-60, 72 hr, XTT",3.5 nM
same,IC50,"[6]; Table II, HL-60, 72 hr, XTT, listed as WS-1",9.4 nM
same,AVERAGE TUMOR VOLUME,"[7]; B16 melanoma, 4 mg/kg, day 7",0.113 CM^3
same,DEATHS (D/L),"[7]; B16 melanoma, 4 mg/kg, day 7",0/2
same,PERCENT OF CONTROL (tumor volume),"[7]; B16 melanoma, 4 mg/kg, day 7",59.5%
same,AVERAGE TUMOR VOLUME,"[7]; B16 melanoma, 4 mg/kg, day 14",3.500 CM^3
same,AWC (average weight change),"[7]; B16 melanoma, 4 mg/kg, day 14",+2.4 GM
same,DEATHS (D/L),"[7]; B16 melanoma, 4 mg/kg, day 14",0/2
same,PERCENT OF CONTROL (tumor volume),"[7]; B16 melanoma, 4 mg/kg, day 14",109.8%
same,average weight loss,"[7]; B-16 melanoma, 4 mg/kg",1.8 gm
same,tumor volume decrease,"[7]; B-16 melanoma, 4 mg/kg",40%
same,AWC (average weight change),[7]; [10],-1.8 gm
same,Ave Tumor Volume (T/C),[7]; [10],0.595

# From patent US5525731A, “Camptothecin analogues and methods of preparation thereof” (priority 1994, dated 1996)
